The values below come from patent publication US10202411B2, “3′-substituted methyl or alkynyl nucleosides nucleotides for the treatment of HCV” (priority 2014, dated 2019).

Data set [1] is described as follows: in vitro. Conditions: human.
Data set [2] has as its system HCV genotype 1b replicon. The experiment in a line: HCV replicon assay (Zluc luciferase reporter). The format is cell-based. To be noted: Huh-7-derived Zluc cells, genotype 1b replicon, luciferase, 72 hours, read-out: HCV Replicon EC50. As for the experimental part:
Huh-7-derived cell line (Zluc) that harbors an HCV genotype 1b replicon and a luciferase reporter gene was grown in Dulbecco's Modified Eagle Medium (DMEM) supplemented with 10% fetal bovine serum, 2 mM GlutaMAX, 1% MEM nonessential amino acids, 100 IU/mL penicillin, 100 μg/mL streptomycin, and 0.5 mg/mL Geneticin® (G418). For dose response testing the cells were seeded in 96-well plates at 7.5×10^3 cells per well in a volume of 50 μL, and incubated at 37° C./5% CO2. Drug solutions were made up freshly in Huh-7 media as 2× stocks. Ten additional 5-fold dilutions were prepared from these stocks in DMEM without G418. At least three hours after Zluc cells were seeded, drug treatment was initiated by adding 50 μL of drug dilutions to the plates in duplicate. Final concentrations of drug ranged from 100 μM to 0.0000512 μM. Cells were then incubated at 37° C./5% CO2. Alternatively, compounds were tested at two concentrations (1 μM and 10 μM). […] After 72 hours of incubation, the inhibition of HCV replication was measured by quantification of photons emitted after mono-oxygenation of 5′-fluoroluciferin to oxyfluoroluciferin by firefly luciferase. For this, media was removed from the plates via gentle tapping. Fifty microliters of ONE-glo luciferase assay reagent was added to each well. The plates were shaken gently for 3 min at room temperature and luminescence was measured on a Victor^3 V 1420 multilabel counter (Perkin Elmer) with a 1 second read time using a 700 nm cut-off filter. The EC50 values were calculated from dose response curves from the resulting best-fit equations determined by Microsoft Excel and XLfit 4.1 software. When screening at two fixed concentrations, the results were expressed as % inhibition at 1 μM and 10 μM.
On the technique in general: In antiviral work, replicon cells carry a viral genome segment that copies itself.

Data set [3] deals with Zluc cells. The experiment in a line: Cytotoxicity evaluation, CellTiter-Blue Cell Viability Assay. Conditions: read-out: HCV Replicon CC50; Zluc cells, CellTiter-Blue cell viability. A general note: The colour change of resazurin is a common sign of viable cells or microbes.

Like-named read-outs stand apart in the source and are kept apart here.

Take `CC(C)(CO)C(=O)SCCO[PH](=O)OC[C@H]1O[C@@H](n2ccc(=O)[nH]c2=O)[C@H](O)[C@@H]1CO` (mixture of isomers) [Compound 107 (Mixture of diastereomers)]: in data set [1], the CC50 is above 50 µM. The concentration for a half-maximal effect (EC50) in data set [2] (Hepatitis C virus) is above 10 µM.
The corresponding values for `CC(C)(CO)C(=O)SCCOP1(=O)OC[C@H]2[C@@H](O)[C@H](n3ccc(=O)[nH]c3=O)O[C@@H]2CO1` (mixture of isomers) [Compound 109 (Mixture of diastereomers)] are above 50 µM and above 10 µM.
In the same order, the values of `CC(C)OC(=O)CCCOP1(=O)OC[C@H]2[C@@H](O)[C@H](n3ccc(=O)[nH]c3=O)O[C@@H]2CO1` (mixture of isomers) [Compound 112 (Mixture of diastereomers)] are above 50 µM and above 10 µM.
`O=c1ccn([C@@H]2O[C@@H]3COP(=O)(OCc4ccccc4)OC[C@H]3[C@H]2O)c(=O)[nH]1` (mixture of isomers) [Compound 113 (Mixture of diastereomers)] yielded a CC50 in data set [1] above 50 µM. Besides, the EC50 in data set [2] (Hepatitis C virus) is above 10 µM.
`O=c1ccn([C@@H]2O[C@H](CO[PH](=O)OCc3ccccc3)[C@@H](CO)[C@H]2O)c(=O)[nH]1` (mixture of isomers) [Compound 114 (Mixture of diastereomers)]: the CC50 in data set [1] is above 50 µM. In addition, the EC50 in data set [2] (Hepatitis C virus) was above 10 µM.
In the same order, the values of `CCOC(=O)OC(C)OP(=O)(N[C@H](C(=O)OC)C(C)C)OC[C@H]1O[C@@H](n2cnc3c(OCC)nc(N)nc32)[C@H](O)[C@@H]1CF` (mixture of isomers) [Compound 128a Mixture of diastereomers] are above 50 µM and above 10 µM.
Take `CC(C)OC(=O)[C@H](C)NP(=O)(OCCSC(=O)C(C)(C)C)OC[C@H]1O[C@@H](n2ccc(N)nc2=O)[C@H](O)[C@@H]1CO` (single isomer, unassigned) [Compound 106b (Mixture of diastereomers)]: the CC50 in data set [3] is above 50 µM. Besides, in data set [2], the EC50 is above 10 µM.
Regarding `CC(C)OP1(=O)OC[C@H]2[C@@H](O)[C@H](n3ccc(=O)[nH]c3=O)O[C@@H]2CO1` (single isomer, unassigned) [Compound 108 (Diastereomer 1)], in data set [1], the CC50 was above 50 µM. In data set [2] (Hepatitis C virus), the EC50 is above 10 µM.
In the case of `CC(C)OP1(=O)OC[C@H]2[C@@H](O)[C@H](n3ccc(=O)[nH]c3=O)O[C@@H]2CO1` (single isomer, unassigned) [Compound 108 (Diastereomer 2)], in data set [3], the CC50 was above 50 µM. Besides, in data set [2], the EC50 was above 10 µM.
The molecule `CC(C)(CO)C(=O)SCCOP1(=O)OC[C@H]2[C@@H](O)[C@H](n3ccc(=O)[nH]c3=O)O[C@@H]2CO1` (single isomer, unassigned) [Compound 109 (Diastereomer 1)] displayed a CC50 in data set [1] above 50 µM. Also, in data set [2] (Hepatitis C virus), the EC50 is above 10 µM.
As to `CC(C)(CO)C(=O)SCCOP1(=O)OC[C@H]2[C@@H](O)[C@H](n3ccc(=O)[nH]c3=O)O[C@@H]2CO1` (single isomer, unassigned) [Compound 109 (Diastereomer 2)], in data set [2], the EC50 was above 10 µM.
Consider `CC(C)OC(=O)[C@@H](C)NP1(=O)OC[C@H]2[C@@H](O)[C@H](n3ccc(=O)[nH]c3=O)O[C@@H]2CO1` (single isomer, unassigned) [Compound 110a (Diastereomer 1)], for which the CC50 in data set [1] was above 50 µM. Further, the EC50 in data set [2] (Hepatitis C virus) is above 10 µM.
On to `CC(C)OC(=O)[C@@H](C)NP1(=O)OC[C@H]2[C@@H](O)[C@H](n3ccc(=O)[nH]c3=O)O[C@@H]2CO1` (single isomer, unassigned) [Compound 110a (Diastereomer 2)], for which the CC50 in data set [3] is above 50 µM. Moreover, the EC50 in data set [2] was above 10 µM.
The molecule `CC(C)OC(=O)CCCOP1(=O)OC[C@H]2[C@@H](O)[C@H](n3ccc(=O)[nH]c3=O)O[C@@H]2CO1` (single isomer, unassigned) [Compound 112 (Diastereomer 1)] registered a CC50 in data set [1] above 50 µM. In data set [2] (Hepatitis C virus), the EC50 was above 10 µM.
Regarding `CC(C)OC(=O)CCCOP1(=O)OC[C@H]2[C@@H](O)[C@H](n3ccc(=O)[nH]c3=O)O[C@@H]2CO1` (single isomer, unassigned) [Compound 112 (Diastereomer 2)], in data set [2], the EC50 was above 10 µM.
Take `O=c1ccn([C@@H]2O[C@@H]3COP(=O)(OCc4ccccc4)OC[C@H]3[C@H]2O)c(=O)[nH]1` (single isomer, unassigned) [Compound 113 (Diastereomer 1)]: in data set [1], the CC50 is above 50 µM. Besides, the EC50 in data set [2] (Hepatitis C virus) is above 10 µM.
The molecule `C[C@@H](NP1(=O)OC[C@H]2[C@@H](O)[C@H](n3ccc(=O)[nH]c3=O)O[C@@H]2CO1)C(=O)OCc1ccccc1` (single isomer, unassigned) [Compound 120a (Diastereomer 1)] yielded a CC50 in data set [1] above 50 µM. Moreover, the EC50 in data set [2] (Hepatitis C virus) is above 10 µM.
For `C[C@@H](NP(=O)(OC[C@H]1O[C@@H](n2ccc(=O)[nH]c2=O)[C@H](O)[C@@H]1CO)Oc1ccccc1)C(=O)OCc1ccccc1` (single isomer, unassigned) [Compound 123a Diastereomer 1], the CC50 in data set [1] is above 50 µM. Besides, the EC50 in data set [2] (Hepatitis C virus) is above 10 µM.
In turn, `C[C@@H](NP(=O)(OC[C@H]1O[C@@H](n2cnc3c(=O)[nH]c(N)nc32)[C@H](O)[C@@H]1CF)Oc1ccccc1)C(=O)OC1CCCC1` (single isomer, unassigned) [Compound 124a Diastereomer 1] had a CC50 in data set [1] above 50 µM. Besides, in data set [2] (Hepatitis C virus), the EC50 was above 10 µM.
As for `CC(O)[C@H]1[C@@H](O)[C@H](n2ccc(=O)[nH]c2=O)O[C@@H]1CO` (single isomer, unassigned) [Compound 211 (Single Isomer)], the CC50 in data set [1] is above 50 µM. The EC50 in data set [2] (Hepatitis C virus) was above 10 µM.
For `CC(C)(C)C(=O)SCCOP(=O)(OCCSC(=O)C(C)(C)C)OC[C@H]1O[C@@H](n2cnc3c(=O)[nH]c(N)nc32)[C@H](O)[C@@H]1CO` [Compound 101], in data set [1], the CC50 is above 50 µM. Besides, in data set [2] (Hepatitis C virus), the 50% effective concentration (EC50) was above 10 µM.
In data set [1], `CC(C)OC(=O)CCCOP(=O)(O)OC[C@H]1O[C@@H](n2ccc(=O)[nH]c2=O)[C@H](O)[C@@H]1CO` [Compound 115] showed a CC50 above 50 µM. In addition, in data set [2] (Hepatitis C virus), the EC50 is above 10 µM.
For `O=c1ccn([C@@H]2O[C@@H]3COP(=O)(O)OC[C@H]3[C@H]2O)c(=O)[nH]1` [Compound 118], the CC50 in data set [1] was above 50 µM. Also, in data set [2] (Hepatitis C virus), the EC50 was above 10 µM.
`CCOC(=O)[C@H](CC(C)C)NP(=O)(N[C@@H](CC(C)C)C(=O)OCC)OC[C@H]1O[C@@H](n2cnc3c(OCC)nc(N)nc32)[C@H](O)[C@@H]1CF` [Compound 129a]: the CC50 in data set [1] was above 50 µM. Moreover, the EC50 in data set [2] (Hepatitis C virus) was above 10 µM.
In the case of `O=c1ccn([C@@H]2O[C@H](CO)[C@@H](C(F)F)[C@H]2O)c(=O)[nH]1` [Compound 201], the CC50 in data set [1] was above 50 µM. Moreover, in data set [2] (Hepatitis C virus), the EC50 is above 10 µM.
In the same order, the values of `O=c1ccn([C@@H]2O[C@H](CO)[C@@H](CF)[C@H]2O)c(=O)[nH]1` [Compound 202] are above 50 µM and above 10 µM.
In data set [1], `Nc1ccn([C@@H]2O[C@H](CO)[C@@H](C(F)F)[C@H]2O)c(=O)n1` [Compound 203] came in with a CC50 above 50 µM. The EC50 in data set [2] (Hepatitis C virus) was above 10 µM.
In the same order, the values of `Nc1ccn([C@@H]2O[C@H](CO)[C@@H](CF)[C@H]2O)c(=O)n1` [Compound 204] are above 50 µM and above 10 µM.
As for `O=c1ccn([C@@H]2O[C@H](CO)[C@@H](CO)[C@H]2O)c(=O)[nH]1` [Compound 205], the CC50 in data set [1] is above 50 µM. Besides, in data set [2] (Hepatitis C virus), the EC50 is above 10 µM.
The molecule `Nc1ccn([C@@H]2O[C@H](CO)[C@@H](CO)[C@H]2O)c(=O)n1` [Compound 206] had a CC50 in data set [1] above 50 µM. Also, the EC50 in data set [2] (Hepatitis C virus) was above 10 µM.
The corresponding values for `Nc1ncnc2c1ncn2[C@@H]1O[C@H](CO)[C@@H](CO)[C@H]1O` [Compound 207] are above 50 µM and above 10 µM.
In the same order, the values of `CC(=O)OC[C@H]1[C@@H](OC(C)=O)[C@H](n2ccc(=O)[nH]c2=O)O[C@@H]1CO` [Compound 212] are above 50 µM and above 10 µM.
In the same order, the values of `CC(=O)OC[C@H]1[C@@H](OC(C)=O)[C@H](n2ccc(N)nc2=O)O[C@@H]1CO` [Compound 213] are above 50 µM and above 10 µM.
In the case of `Nc1ncnc2c1ncn2[C@@H]1O[C@H](CO)[C@@H](CF)[C@H]1O` [Compound 225], in data set [1], the CC50 was above 50 µM. For the same molecule, the EC50 in data set [2] (Hepatitis C virus) was above 10 µM.
The corresponding values for `Nc1nc2c(ncn2[C@@H]2O[C@H](CO)[C@@H](CF)[C@H]2O)c(=O)[nH]1` [Compound 226] are above 50 µM and above 10 µM.
The corresponding values for `CCOc1nc(N)nc2c1ncn2[C@@H]1O[C@H](CO)[C@@H](CO)[C@H]1O` [Compound 227] are above 50 µM and above 10 µM.

By EC50 is commonly meant the concentration at which the effect is half-maximal.
